Experimental data published in patent US11827627B2, “N-(hydroxyalkyl (hetero)aryl) tetrahydrofuran carboxamides as modulators of sodium channels” (VERTEX PHARMACEUTICALS INCORPORATED, priority 2021, dated 2023).

Target: human NaV 1.8 (Homo sapiens, UniProt Q9Y5Y9)
Assay: E-VIPR assay detecting and measuring NaV inhibition properties
Type: cell-based
Details: HEK cells expressing a truncated form of human NaV 1.8; electrical stimulation, membrane potential FRET dyes
Summary of the method: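 HEK cells expressing truncated full-activity NaV 1.8, co-transduced with KIR2.1 BacMam, seeded 16-20 h before assay. Electrical stimulation with FRET membrane-potential dyes (CC2-DMPE/DiSBAC6(3)) in HEPES-buffered bath solutions; 25% human serum final.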

Chain of human NaV 1.8 (Q9Y5Y9 126-1722 limits assumed): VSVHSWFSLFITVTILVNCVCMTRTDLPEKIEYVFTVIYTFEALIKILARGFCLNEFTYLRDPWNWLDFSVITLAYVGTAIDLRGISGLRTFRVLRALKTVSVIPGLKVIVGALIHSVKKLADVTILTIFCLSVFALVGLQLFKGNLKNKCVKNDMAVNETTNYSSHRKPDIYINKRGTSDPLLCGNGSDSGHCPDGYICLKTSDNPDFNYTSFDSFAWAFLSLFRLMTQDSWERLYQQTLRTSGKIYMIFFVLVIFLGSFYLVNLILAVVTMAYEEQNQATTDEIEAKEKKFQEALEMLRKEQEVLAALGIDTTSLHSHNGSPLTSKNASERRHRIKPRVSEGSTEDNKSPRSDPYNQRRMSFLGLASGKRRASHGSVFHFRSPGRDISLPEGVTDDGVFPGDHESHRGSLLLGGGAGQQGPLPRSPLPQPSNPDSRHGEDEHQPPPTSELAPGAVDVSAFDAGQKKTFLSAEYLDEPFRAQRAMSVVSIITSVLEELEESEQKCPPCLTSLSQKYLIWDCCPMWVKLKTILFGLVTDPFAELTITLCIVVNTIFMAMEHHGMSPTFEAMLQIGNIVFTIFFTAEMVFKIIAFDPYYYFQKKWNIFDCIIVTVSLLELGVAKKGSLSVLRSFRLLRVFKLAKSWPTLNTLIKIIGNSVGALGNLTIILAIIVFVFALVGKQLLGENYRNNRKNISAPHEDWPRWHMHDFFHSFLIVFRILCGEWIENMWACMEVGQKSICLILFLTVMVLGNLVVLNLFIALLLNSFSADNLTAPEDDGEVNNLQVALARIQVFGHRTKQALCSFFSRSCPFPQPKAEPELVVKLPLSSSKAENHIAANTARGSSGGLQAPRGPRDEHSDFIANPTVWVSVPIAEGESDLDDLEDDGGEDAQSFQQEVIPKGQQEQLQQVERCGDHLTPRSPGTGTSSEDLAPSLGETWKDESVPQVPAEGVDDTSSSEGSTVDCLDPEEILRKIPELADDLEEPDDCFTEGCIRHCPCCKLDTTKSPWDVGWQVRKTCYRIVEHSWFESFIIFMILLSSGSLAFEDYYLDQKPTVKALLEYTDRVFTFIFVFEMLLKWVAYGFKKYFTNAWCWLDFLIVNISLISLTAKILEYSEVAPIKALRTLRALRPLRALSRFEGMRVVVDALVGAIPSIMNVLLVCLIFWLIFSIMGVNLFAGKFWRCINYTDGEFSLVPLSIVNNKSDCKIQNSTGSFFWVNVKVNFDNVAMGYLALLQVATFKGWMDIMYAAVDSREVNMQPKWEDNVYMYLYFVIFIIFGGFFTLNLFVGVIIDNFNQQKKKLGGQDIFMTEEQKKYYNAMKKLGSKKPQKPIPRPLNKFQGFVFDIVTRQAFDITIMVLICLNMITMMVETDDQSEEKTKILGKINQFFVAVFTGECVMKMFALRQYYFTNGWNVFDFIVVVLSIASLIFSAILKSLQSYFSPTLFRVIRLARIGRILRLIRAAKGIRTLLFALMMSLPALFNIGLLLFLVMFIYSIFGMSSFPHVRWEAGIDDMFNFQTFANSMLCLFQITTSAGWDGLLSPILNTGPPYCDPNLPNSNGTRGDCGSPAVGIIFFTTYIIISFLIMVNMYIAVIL

IC50 [nM] | SMILES
100 to 1000 | COc1nc(C(F)F)ccc1[C@H]1[C@H](C(=O)Nc2ccc(CO)nc2)O[C@@](C)(C(F)(F)F)[C@H]1C (stereo in doubt) [Compound 88, rel-(2R,3S,4S,5R)-3-(6-(difluoromethyl)-2-methoxypyridin-3-yl)-N-(6-(hydroxymethyl)pyridin-3-yl)-4,5-dimethyl-5-(trifluoromethyl)tetrahydrofuran-2-carboxamide]
≥ 1000 | COc1nc(C(F)F)ccc1[C@@H]1[C@@H](C(=O)Nc2ccc(CO)nc2)O[C@](C)(C(F)(F)F)[C@@H]1C (stereo in doubt) [Compound 89, rel-(2S,3R,4R,5S)-3-(6-(difluoromethyl)-2-methoxypyridin-3-yl)-N-(6-(hydroxymethyl)pyridin-3-yl)-4,5-dimethyl-5-(trifluoromethyl)tetrahydrofuran-2-carboxamide]
< 10 | CCOc1c([C@H]2[C@H](C(=O)Nc3ccc([C@H](O)CO)nc3)O[C@@](C)(C(F)(F)F)[C@H]2C)ccc(F)c1F [Compound 6, (2R,3S,4S,5R)-N-(6-((S)-1,2-dihydroxyethyl)pyridin-3-yl)-3-(2-ethoxy-3,4-difluorophenyl)-4,5-dimethyl-5-(trifluoromethyl)tetrahydrofuran-2-carboxamide]
< 10 | CCOc1c([C@H]2[C@H](C(=O)Nc3ccc([C@@H](O)CO)nc3)O[C@@](C)(C(F)(F)F)[C@H]2C)ccc(F)c1F [Compound 7, (2R,3S,4S,5R)-N-(6-((R)-1,2-dihydroxyethyl)pyridin-3-yl)-3-(2-ethoxy-3,4-difluorophenyl)-4,5-dimethyl-5-(trifluoromethyl)tetrahydrofuran-2-carboxamide]
< 10 | [2H]C([2H])([2H])Oc1c([C@H]2[C@H](C(=O)Nc3ccc([C@@H](O)CO)nc3)O[C@@](C)(C(F)(F)F)[C@H]2C)ccc(F)c1F [Compound 8, (2R,3S,4S,5R)-3-(3,4-difluoro-2-(methoxy-d3)phenyl)-N-(6-((R)-1,2-dihydroxyethyl)pyridin-3-yl)-4,5-dimethyl-5-(trifluoromethyl)tetrahydrofuran-2-carboxamide]
10 to 100 | CC(C)Oc1c(C2C(C(=O)Nc3cnc(C(O)CO)nc3)OC(C)(C(F)(F)F)C2C)ccc(F)c1F (centres unmarked) [Compound 9]
< 10 | COc1c([C@H]2[C@H](C(=O)Nc3ccc(CO)nc3)O[C@@](C)(C(F)(F)F)[C@H]2C)ccc(F)c1F [Compound 14, (2R,3S,4S,5R)-3-(3,4-difluoro-2-methoxyphenyl)-N-(6-(hydroxymethyl)pyridin-3-yl)-4,5-dimethyl-5-(trifluoromethyl)tetrahydrofuran-2-carboxamide]
< 10 | COc1c([C@H]2[C@H](C(=O)Nc3cnc(CO)nc3)O[C@@](C)(C(F)(F)F)[C@H]2C)ccc(F)c1F [Compound 15, (2R,3S,4S,5R)-3-(3,4-difluoro-2-methoxyphenyl)-N-(2-(hydroxymethyl)pyrimidin-5-yl)-4,5-dimethyl-5-(trifluoromethyl)tetrahydrofuran-2-carboxamide]
10 to 100 | COc1c([C@H]2[C@H](C(=O)Nc3ccc(CO)nc3)O[C@@](C)(C(F)(F)F)[C@H]2C)ccc(OC(F)F)c1F [Compound 18, (2R,3S,4S,5R)-3-(4-(difluoromethoxy)-3-fluoro-2-methoxyphenyl)-N-(6-(hydroxymethyl)pyridin-3-yl)-4,5-dimethyl-5-(trifluoromethyl)tetrahydrofuran-2-carboxamide]
10 to 100 | COc1c([C@H]2[C@H](C(=O)Nc3cnc(CO)nc3)O[C@@](C)(C(F)(F)F)[C@H]2C)ccc(OC(F)F)c1F [Compound 19, (2R,3S,4S,5R)-3-(4-(difluoromethoxy)-3-fluoro-2-methoxyphenyl)-N-(2-(hydroxymethyl)pyrimidin-5-yl)-4,5-dimethyl-5-(trifluoromethyl)tetrahydrofuran-2-carboxamide]
100 to 1000 | C[C@H]1[C@@H](c2ccc(F)c(F)c2O)[C@H](C(=O)Nc2ccc([C@@H](O)CO)nc2)O[C@@]1(C)C(F)(F)F [Compound 36, (2R,3S,4S,5R)-3-(3,4-difluoro-2-hydroxyphenyl)-N-(6-((R)-1,2-dihydroxyethyl)pyridin-3-yl)-4,5-dimethyl-5-(trifluoromethyl)tetrahydrofuran-2-carboxamide]
< 10 | C[C@H]1[C@@H](c2ccc(F)c(F)c2OCCF)[C@H](C(=O)Nc2ccc([C@@H](O)CO)nc2)O[C@@]1(C)C(F)(F)F [Compound 37, (2R,3S,4S,5R)-3-(3,4-difluoro-2-(2-fluoroethoxy)phenyl)-N-(6-((R)-1,2-dihydroxyethyl)pyridin-3-yl)-4,5-dimethyl-5-(trifluoromethyl)tetrahydrofuran-2-carboxamide]
< 10 | C[C@H]1[C@@H](c2ccc(F)c(F)c2OCC(F)F)[C@H](C(=O)Nc2ccc([C@@H](O)CO)nc2)O[C@@]1(C)C(F)(F)F [Compound 38, (2R,3S,4S,5R)-3-(2-(2,2-difluoroethoxy)-3,4-difluorophenyl)-N-(6-((R)-1,2-dihydroxyethyl)pyridin-3-yl)-4,5-dimethyl-5-(trifluoromethyl)tetrahydrofuran-2-carboxamide]
≥ 1000 | C[C@H]1[C@@H](c2ccc(F)c(F)c2O)[C@H](C(=O)Nc2cnc(CO)nc2)O[C@@]1(C)C(F)(F)F [Compound 39, (2R,3S,4S,5R)-3-(3,4-difluoro-2-hydroxyphenyl)-N-(2-(hydroxymethyl)pyrimidin-5-yl)-4,5-dimethyl-5-(trifluoromethyl)tetrahydrofuran-2-carboxamide]
< 10 | COc1c([C@H]2[C@H](C(=O)Nc3ccc([C@@H](O)CO)[n+]([O-])c3)O[C@@](C)(C(F)(F)F)[C@H]2C)ccc(F)c1F [Compound 60, 5-((2R,3S,4S,5R)-3-(3,4-difluoro-2-methoxyphenyl)-4,5-dimethyl-5-(trifluoromethyl)tetrahydrofuran-2-carboxamido)-2-((R)-1,2-dihydroxyethyl)pyridine 1-oxide]
< 10 | COc1c([C@H]2[C@H](C(=O)Nc3cnc(CO)c(F)c3)O[C@@](C)(C(F)(F)F)[C@H]2C)ccc(F)c1F [Compound 83, (2R,3S,4S,5R)-3-(3,4-difluoro-2-methoxyphenyl)-N-(5-fluoro-6-(hydroxymethyl)pyridin-3-yl)-4,5-dimethyl-5-(trifluoromethyl)tetrahydrofuran-2-carboxamide]
< 10 | COc1c([C@H]2[C@H](C(=O)Nc3ccc([C@@H](C)O)nc3)O[C@@](C)(C(F)(F)F)[C@H]2C)ccc(F)c1F [Compound 84, (2R,3S,4S,5R)-3-(3,4-difluoro-2-methoxyphenyl)-N-(6-((R)-1-hydroxyethyl)pyridin-3-yl)-4,5-dimethyl-5-(trifluoromethyl)tetrahydrofuran-2-carboxamide]
10 to 100 | COc1c([C@H]2[C@H](C(=O)Nc3ccc([C@H](C)O)nc3)O[C@@](C)(C(F)(F)F)[C@H]2C)ccc(F)c1F [Compound 85, (2R,3S,4S,5R)-3-(3,4-difluoro-2-methoxyphenyl)-N-(6-((S)-1-hydroxyethyl)pyridin-3-yl)-4,5-dimethyl-5-(trifluoromethyl)tetrahydrofuran-2-carboxamide]
10 to 100 | COc1c([C@H]2[C@H](C(=O)Nc3cnc(CO)cn3)O[C@@](C)(C(F)(F)F)[C@H]2C)ccc(F)c1F [Compound 86, (2R,3S,4S,5R)-3-(3,4-difluoro-2-methoxyphenyl)-N-(5-(hydroxymethyl)pyrazin-2-yl)-4,5-dimethyl-5-(trifluoromethyl)tetrahydrofuran-2-carboxamide]
100 to 1000 | COc1c([C@H]2[C@H](C(=O)Nc3cnc(CO)c(CO)c3)O[C@@](C)(C(F)(F)F)[C@H]2C)ccc(F)c1F [Compound 87, (2R,3S,4S,5R)-N-(5,6-bis(hydroxymethyl)pyridin-3-yl)-3-(3,4-difluoro-2-methoxyphenyl)-4,5-dimethyl-5-(trifluoromethyl)tetrahydrofuran-2-carboxamide]
